We go through 15 compounds from US20060275816A1, “Methods for identifying drug pharmacology and toxicology” (priority 2005, published 2006).

Series [1] concerns HepG2 cells. Kind of series: Cytotoxicity, CellTiter Blue Cell Viability Assay (LD50). In kind it is cell-based. The protocol:
FIG. 3 provides a graphical illustration of an experimental approach used to assess candidate compounds. (1) Cells were plated and allowed to adhere for one day. At that time various concentrations of compound were added to cells and incubated for an additional 72 hours. […] (2) Cells were plated as above and treated with compound at the predetermined LD50 concentration. Following 24 hours incubation in the presence of compound, cells were collected, RNA was harvested and 3) analyzed using the RiboChip.
In an embodiment, human hepatocellular carcinoma HepG2 cells were used to test the effect of a compound on liver biology and toxicology. […] In an embodiment, a single acute dose of a compound is used. […] The choice of high dose identifies the possible modes of toxicity and detects low-incidence responses.
Cells were maintained as recommended in Minimal Essential Medium (MEM) (Gibco-BRL, a Division of Invitrogen, Carlsbad, Calif.) with 10% fetal bovine serum (FBS, HyClone, Logan, Utah) supplemented with antibiotics in p150 plates at 37° C., 5% CO2. Cells were split 1:5 and fresh media added every 3 days.
Cytotoxicity was assessed using the Alamar Blue-based CellTiter™ Blue Cell Viability Assay (Promega, Madison, Wis.) to determine the viable cell fraction that remained following a 72 hour treatment period. Cells (˜8,000 cells/well) were plated in 96 well BioCoat collagen coated plates (Becton Dickinson, Franklin Lakes, N.J.) using standard media. […] Cells were then allowed to recover for 24 hours at 37° C., 5% CO2. A two (2) fold dilution series was prepared for each compound starting at 3.0 mM in MEM containing 0.1% BSA (instead of 10% FBS) but without phenol red or antibiotics. Following the cell recovery period, the media was removed and fresh media containing compound was added. Treatments were performed in triplicate for each compound at each dose. Cells were incubated with compound for 72 hours at 37° C., 5% CO2. The viable cell fraction remaining was determined by washing the wells with fresh media without indicator, lysing the remaining live cells by adding 0.9% Triton X-100 (Sigma, St. Louis, Mo.) in water, and performing the Alamar Blue assay as described in the CellTiter™ Blue Cell Viability Assay product literature.
A general note: Alamar Blue is a resazurin reagent that responds to reducing activity.

The subject of series [2] is HepG2 cells. Kind of series: Apoptosis, Apo-ONE Homogeneous Caspase-3/7 Assay. In kind it is cell-based, human. The note with it: 24 hours.
For series [3] the following is noted: patients; Lebovitz 2002; cited from earlier work.
In the next series the test system is CCR2 mRNA. Description: Quantitative Real Time PCR of CCR2 mRNA in TZD-treated cells. The note with it: HepG2 cells, LD50 concentration, 24 hours, compound alone. (Quantitative PCR measures a nucleic acid by following its amplification.)
Setting [4] is: HepG2 cells, concentration giving 50% cell death after 72 hours.

Entries after “also recorded” stand apart in the source; their conditions may differ. Where two headings read alike, the source gives them in different places.

Compound `CCCCCCCCCCCCCCC(Br)C(=O)O` (stereo not drawn) [2-Bromohexadecanoic Acid] gave an LD50 with HepG2 cells [1] (setting [4]) of 94 µM.

Regarding `CCCCC/C=C/C=C1/C(=O)C=C[C@@H]1C/C=C\CCCC(=O)O` [15-Deoxy-Δ^12,14-Prostaglandin J2], the LD50 with HepG2 cells [1] came out at 34 µM.

Take `CC(C)(Oc1ccc(CCNC(=O)c2ccc(Cl)cc2)cc1)C(=O)O` [Bezafibrate]: the LD50 with HepG2 cells [1] (setting [4]) was determined as 1940 µM.

For the compound `CC1(COc2ccc(CC3SC(=O)NC3=O)cc2)CCCCC1` (stereo not drawn) [Ciglitazone], in the series on HepG2 cells [2], the “induction of apoptosis (Caspase 3/7 activity)” value (“induction of apoptosis” below) is on record as “potent inducers of apoptosis”. Further, in the series on HepG2 cells [1], the “cell death at 175 μM” value was “significant cell death”. Further, the LD50 in the series on HepG2 cells [1] (human, 72 h) is 76 µM.

In the series with HepG2 cells [1] (setting [4]), `CCOC(=O)C(C)(C)Oc1ccc(Cl)cc1` [Clofibrate] had an LD50 of 240 µM.

Turning to `CCCCC(CC)COC(=O)c1ccccc1C(=O)OCC(CC)CCCC` (stereo not drawn) [Diethylhexylphthalate], in the series on HepG2 cells [1] (setting [4]), the LD50 amounted to 34 µM.

As for `CC(C)OC(=O)C(C)(C)Oc1ccc(C(=O)c2ccc(Cl)cc2)cc1` [Fenofibrate], the LD50 in the series on HepG2 cells [1] (human, 72 h) amounted to 500 µM.

In the series with HepG2 cells [1], `O=C(Nc1ccccc1)c1cc([N+](=O)[O-])ccc1Cl` [GW-9662] yielded an LD50 of 125 µM.

In turn, `Cc1ccc(C)c(OCCCC(C)(C)C(=O)O)c1` [Gemfibrozil] returned an LD50 with HepG2 cells [1] (setting [4]) of 163 µM.

Regarding `O=C(O)C(F)(F)C(F)(F)C(F)(F)C(F)(F)C(F)(F)C(F)(F)C(F)(F)F` [Perfluourooctanoic Acid], the LD50 in the series with HepG2 cells [1] (setting [4]) came out at 191 µM.

Take `CCc1ccc(CCOc2ccc(CC3SC(=O)NC3=O)cc2)nc1` (stereo not drawn) [Pioglitazone]: the “induction of apoptosis” value with HepG2 cells [2] is “did not induce apoptosis at all or only modestly did so; also recorded: undetectable”.

As for `CN(CCOc1ccc(CC2SC(=O)NC2=O)cc1)c1ccccn1` (stereo not drawn) [Rosiglitazone], the “induction of apoptosis” value in the series with HepG2 cells [2] was “did not induce apoptosis at all or only modestly did so”.

Consider `Cc1c(C)c2c(c(C)c1O)CCC(C)(COc1ccc(CC3SC(=O)NC3=O)cc1)O2` (stereo not drawn) [Troglitazone], for which the “induction of apoptosis” value in the series with HepG2 cells [2] is “potent inducers of apoptosis”. Also, the “cell death at 175 μM” value with HepG2 cells [1] is recorded as “significant cell death”. In addition, in the series on HepG2 cells [1] (setting [4]), the LD50 came to 18 µM. In series [3], the “toxicity that ended marketing or development” value is “hepatotoxicity”. In addition, the “increased CCR2 expression relative to control” value in the series on CCR2 mRNA was 6 ×.

In the case of `Cc1cccc(Nc2cc(Cl)nc(SCC(=O)O)n2)c1C` [Wyeth14643], the LD50 in the series on HepG2 cells [1] was found to be 226 µM.

Regarding “N-Acetly-Asp-Glu-Val-Asp-aldehyde [DEVD]”, the “block of TZD-induced apoptosis” value in the series with HepG2 cells [2] (co-administered with TZDs) is recorded as “efficiently blocked”.
